Measurements as given in the supplement of paper PMC13207355.
Where a name gives a salt, the structure may show the parent alone.

What was measured:
Conditions in all cases: exposure time: 72 h
E31 [1] = patient-derived glioblastoma stem cells of proneural subtype; assay: phenotypic distance (Euclidean, principal components) from DMSO controls (arbitrary units); higher = stronger morphological change
E34 [2] = patient-derived glioblastoma stem cells of proneural subtype; assay: as above
E13 [3] = patient-derived glioblastoma stem cells of classical subtype; assay: as above
E28 [4] = patient-derived glioblastoma stem cells of classical subtype; assay: as above
E21 [5] = patient-derived glioblastoma stem cells of mesenchymal subtype; assay: as above
FT3469 [6] = normal neural stem cell line; assay: as above
E57 [7] = patient-derived glioblastoma stem cells of mesenchymal subtype; assay: as above
E31 [8] = assay: surviving fraction (nuclei count normalised to DMSO); higher = more cells surviving (less toxic)
E34 [9] = assay: as above
E13 [10] = assay: as above
E28 [11] = assay: as above
E21 [12] = assay: as above
FT3469 [13] = assay: as above
E57 [14] = assay: as above
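For phenotypic distance (Euclidean, principal components) from DMSO controls in this document: cell Painting imaging in 384-well plates, CellProfiler features reduced to at least 20 principal components, Euclidean distance versus same-plate DMSO vehicle wells (0.1% v/v), median over six images per well.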
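For surviving fraction (nuclei count normalised to DMSO) in this document: nuclei counted by high-content imaging of Hoechst-stained cells in laminin-coated 384-well plates, relative to 0.1% DMSO vehicle wells, with staurosporine as cell-death control.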

Compound: C=C[C@H]1CN2CC[C@H]1C[C@@H]2[C@@H](O)c1ccnc2ccc(OC)cc12 [Quinidine hydrochloride monohydrate]
- phenotypic distance (E31 [1]; 4.1 nM): 1.52
- phenotypic distance (E31 [1]; 12.3 nM): 0.739
- phenotypic distance (E31 [1]; 37 nM): 0.504
- phenotypic distance (E31 [1]; 111.1 nM): 0.428
- phenotypic distance (E31 [1]; 333.3 nM): 0.941
- phenotypic distance (E31 [1]; 1000 nM): 0.478
- phenotypic distance (E31 [1]; 3000 nM): 0.676
- phenotypic distance (E34 [2]; 4.1 nM): 1.26
- phenotypic distance (E34 [2]; 12.3 nM): 0.809
- phenotypic distance (E34 [2]; 37 nM): 1.05
- phenotypic distance (E34 [2]; 111.1 nM): 0.841
- phenotypic distance (E34 [2]; 333.3 nM): 0.778
- phenotypic distance (E34 [2]; 1000 nM): 0.516
- phenotypic distance (E34 [2]; 3000 nM): 0.396
- phenotypic distance (E13 [3]; 4.1 nM): 2.06
- phenotypic distance (E13 [3]; 12.3 nM): 2.74
- phenotypic distance (E13 [3]; 37 nM): 0.288
- phenotypic distance (E13 [3]; 111.1 nM): 0.43
- phenotypic distance (E13 [3]; 333.3 nM): 3.29
- phenotypic distance (E13 [3]; 1000 nM): 0.415
- phenotypic distance (E13 [3]; 3000 nM): 0.498
- phenotypic distance (E28 [4]; 4.1 nM): 0.692
- phenotypic distance (E28 [4]; 12.3 nM): 0.479
- phenotypic distance (E28 [4]; 37 nM): 0.471
- phenotypic distance (E28 [4]; 111.1 nM): 0.837
- phenotypic distance (E28 [4]; 333.3 nM): 0.667
- phenotypic distance (E28 [4]; 1000 nM): 0.843
- phenotypic distance (E28 [4]; 3000 nM): 0.738
- phenotypic distance (E21 [5]; 4.1 nM): 1.42
- phenotypic distance (E21 [5]; 12.3 nM): 0.785
- phenotypic distance (E21 [5]; 37 nM): 0.783
- phenotypic distance (E21 [5]; 111.1 nM): 0.852
- phenotypic distance (E21 [5]; 333.3 nM): 0.814
- phenotypic distance (E21 [5]; 1000 nM): 0.565
- phenotypic distance (E21 [5]; 3000 nM): 1.06
- phenotypic distance (FT3469 [6]; 4.1 nM): 1.14
- phenotypic distance (FT3469 [6]; 12.3 nM): 0.621
- phenotypic distance (FT3469 [6]; 37 nM): 0.809
- phenotypic distance (FT3469 [6]; 111.1 nM): 0.891
- phenotypic distance (FT3469 [6]; 333.3 nM): 0.965
- phenotypic distance (FT3469 [6]; 1000 nM): 0.266
- phenotypic distance (FT3469 [6]; 3000 nM): 0.69
- phenotypic distance (E57 [7]; 4.1 nM): 0.629
- phenotypic distance (E57 [7]; 12.3 nM): 0.932
- phenotypic distance (E57 [7]; 37 nM): 0.42
- phenotypic distance (E57 [7]; 111.1 nM): 5.48
- phenotypic distance (E57 [7]; 333.3 nM): 0.376
- phenotypic distance (E57 [7]; 1000 nM): 0.318
- phenotypic distance (E57 [7]; 3000 nM): 0.734
- surviving fraction (E31 [8]; 4.1 nM): 1.04
- surviving fraction (E31 [8]; 12.3 nM): 0.915
- surviving fraction (E31 [8]; 37 nM): 0.941
- surviving fraction (E31 [8]; 111.1 nM): 0.942
- surviving fraction (E31 [8]; 333.3 nM): 1.04
- surviving fraction (E31 [8]; 1000 nM): 0.944
- surviving fraction (E31 [8]; 3000 nM): 1.09
- surviving fraction (E34 [9]; 4.1 nM): 1.06
- surviving fraction (E34 [9]; 12.3 nM): 0.922
- surviving fraction (E34 [9]; 37 nM): 0.904
- surviving fraction (E34 [9]; 111.1 nM): 0.914
- surviving fraction (E34 [9]; 333.3 nM): 1.02
- surviving fraction (E34 [9]; 1000 nM): 0.91
- surviving fraction (E34 [9]; 3000 nM): 0.984
- surviving fraction (E13 [10]; 4.1 nM): 0.965
- surviving fraction (E13 [10]; 12.3 nM): 1.04
- surviving fraction (E13 [10]; 37 nM): 1.06
- surviving fraction (E13 [10]; 111.1 nM): 1.03
- surviving fraction (E13 [10]; 333.3 nM): 0.954
- surviving fraction (E13 [10]; 1000 nM): 1.09
- surviving fraction (E13 [10]; 3000 nM): 1.01
- surviving fraction (E28 [11]; 4.1 nM): 1.12
- surviving fraction (E28 [11]; 12.3 nM): 0.991
- surviving fraction (E28 [11]; 37 nM): 1.14
- surviving fraction (E28 [11]; 111.1 nM): 1.02
- surviving fraction (E28 [11]; 333.3 nM): 1.15
- surviving fraction (E28 [11]; 1000 nM): 1.07
- surviving fraction (E28 [11]; 3000 nM): 1.2
- surviving fraction (E21 [12]; 4.1 nM): 0.736
- surviving fraction (E21 [12]; 12.3 nM): 1.03
- surviving fraction (E21 [12]; 37 nM): 0.863
- surviving fraction (E21 [12]; 111.1 nM): 1.03
- surviving fraction (E21 [12]; 333.3 nM): 1
- surviving fraction (E21 [12]; 1000 nM): 0.964
- surviving fraction (E21 [12]; 3000 nM): 0.865
- surviving fraction (FT3469 [13]; 4.1 nM): 0.974
- surviving fraction (FT3469 [13]; 12.3 nM): 0.955
- surviving fraction (FT3469 [13]; 37 nM): 1.03
- surviving fraction (FT3469 [13]; 111.1 nM): 1.14
- surviving fraction (FT3469 [13]; 333.3 nM): 1.03
- surviving fraction (FT3469 [13]; 1000 nM): 0.998
- surviving fraction (FT3469 [13]; 3000 nM): 0.957
- surviving fraction (E57 [14]; 4.1 nM): 1.05
- surviving fraction (E57 [14]; 12.3 nM): 1.09
- surviving fraction (E57 [14]; 37 nM): 1.04
- surviving fraction (E57 [14]; 111.1 nM): 1.07
- surviving fraction (E57 [14]; 333.3 nM): 1.05
- surviving fraction (E57 [14]; 1000 nM): 1.09
- surviving fraction (E57 [14]; 3000 nM): 1.12
